Measured values from patent US20240217960A1, “TRIAZINE DERIVATIVE AS COVALENT INHIBITORS OF PI3K” (UNIVERSITÄT BASEL, priority 2021, published 2024).
Values after ≈ are worked out from the molar mass of the structure shown.

How the values were obtained:
PBS solubility = type: physicochemical; settings: aqueous buffer, pH 7.4, 3 independent measurements
[1] = Intrinsic reactivity of the inhibitors (kchem) with βME measured with HPLC; type: physicochemical; settings: 1 mM inhibitor + 600 mM βME, n = 3
Experimental LogD = type: physicochemical; settings: pH 7.4; 3 independent measurements
[2] = system: pSer473 of PKB/Akt in SKOV3 cells; assay: In Cell Western cellular PI3K signaling and IC50 determination; type: cell-based; settings: Homo sapiens, SK-OV-3; SKOV3 cells; 2 or 3 independent measurements; read-out: IC50 pPKB (S473) SKOV3
Description: Protein phosphorylation was detected as follows: pSer473 of PKB/Akt with rabbit polyclonal antibody from Cell Signaling Technology (CST) (#4058) by In-Cell Western assays, where 1.2×10^4 SKOV3 cells/well in 96-well plates were plated (Cell Carrier, PerkinElmer) for 24 hours (37° C., 5% CO2), as described in Ref. ^25.

p110α (PI3Kα) = p110α (PI3Kα) (Homo sapiens, UniProt P42336); assay: Determination of kinetic constants (kinact, Ki) for p110α by LanthaScreen Technology; type: binding; settings: for Ki: dissociation constant of the first reversible binding, read-out: Ki PI3Kα; for Ki / kinact: global fitting with KinTek; for kinact: maximum potential rate of covalent bond formation, read-out: kinact PI3Kα; for kinact/KI: read-out: kinact/Ki PI3Kα
p110α (PI3Kα), sequence (P42336 whole entry): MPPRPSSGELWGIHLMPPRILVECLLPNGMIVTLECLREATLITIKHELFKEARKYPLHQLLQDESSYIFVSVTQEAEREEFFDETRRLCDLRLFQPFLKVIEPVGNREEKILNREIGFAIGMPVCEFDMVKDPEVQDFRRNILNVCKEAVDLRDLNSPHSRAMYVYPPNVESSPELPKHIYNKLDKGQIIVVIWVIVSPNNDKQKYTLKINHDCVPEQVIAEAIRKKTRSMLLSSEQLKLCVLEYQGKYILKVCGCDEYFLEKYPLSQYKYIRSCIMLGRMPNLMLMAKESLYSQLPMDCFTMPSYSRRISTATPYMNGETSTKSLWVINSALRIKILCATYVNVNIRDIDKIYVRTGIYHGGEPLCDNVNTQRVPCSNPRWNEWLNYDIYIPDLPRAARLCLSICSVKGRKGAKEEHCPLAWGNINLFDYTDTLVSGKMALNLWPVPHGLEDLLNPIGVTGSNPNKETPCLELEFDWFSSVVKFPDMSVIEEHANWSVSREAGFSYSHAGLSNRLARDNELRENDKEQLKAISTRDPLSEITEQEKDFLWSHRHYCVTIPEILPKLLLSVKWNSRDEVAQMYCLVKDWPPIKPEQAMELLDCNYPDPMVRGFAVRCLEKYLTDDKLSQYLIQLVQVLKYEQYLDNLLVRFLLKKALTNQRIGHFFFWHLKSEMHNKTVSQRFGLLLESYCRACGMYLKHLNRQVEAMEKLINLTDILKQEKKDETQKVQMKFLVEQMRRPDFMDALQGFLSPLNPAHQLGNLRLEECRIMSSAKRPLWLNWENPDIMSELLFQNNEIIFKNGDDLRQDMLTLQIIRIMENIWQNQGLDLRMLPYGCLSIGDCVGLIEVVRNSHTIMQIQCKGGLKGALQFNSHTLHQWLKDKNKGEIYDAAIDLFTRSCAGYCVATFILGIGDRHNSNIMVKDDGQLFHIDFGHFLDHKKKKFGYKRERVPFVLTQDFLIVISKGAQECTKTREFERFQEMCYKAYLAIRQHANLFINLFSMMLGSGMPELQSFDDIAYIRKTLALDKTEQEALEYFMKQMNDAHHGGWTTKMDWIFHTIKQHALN
p110α (PI3Kα), sequence (P27986 whole entry partner): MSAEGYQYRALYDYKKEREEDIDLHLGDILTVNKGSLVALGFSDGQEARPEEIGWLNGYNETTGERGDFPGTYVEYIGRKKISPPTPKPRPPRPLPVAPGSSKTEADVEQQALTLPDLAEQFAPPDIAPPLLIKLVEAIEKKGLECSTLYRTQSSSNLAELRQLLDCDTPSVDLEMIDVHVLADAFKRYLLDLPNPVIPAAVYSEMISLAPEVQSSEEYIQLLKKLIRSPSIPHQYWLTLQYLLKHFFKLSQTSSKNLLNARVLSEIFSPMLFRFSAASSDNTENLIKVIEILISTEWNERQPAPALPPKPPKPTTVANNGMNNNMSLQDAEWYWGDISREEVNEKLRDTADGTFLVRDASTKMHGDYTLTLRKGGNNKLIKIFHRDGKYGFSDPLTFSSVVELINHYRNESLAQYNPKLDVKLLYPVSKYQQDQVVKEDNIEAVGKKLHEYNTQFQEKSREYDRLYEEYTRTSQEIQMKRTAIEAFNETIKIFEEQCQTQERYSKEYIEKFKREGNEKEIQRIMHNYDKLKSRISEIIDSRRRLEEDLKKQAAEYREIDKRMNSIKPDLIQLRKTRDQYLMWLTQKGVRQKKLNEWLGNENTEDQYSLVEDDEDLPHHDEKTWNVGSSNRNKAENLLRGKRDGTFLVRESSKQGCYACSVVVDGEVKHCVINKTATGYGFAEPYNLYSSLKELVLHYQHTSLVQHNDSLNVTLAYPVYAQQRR
Description: Maximum potential rate of covalent bond formation (kinact) and dissociation constant of the first reversible binding (Ki) of compounds for p110α were determined by LanthaScreen Technology (Life Technologies). The calculation of kinetic parameters was carried out through global fitting for numerical integration by using KinTek Global Kinetic Explorer modelling software^26-31.

## CC(C)=CC(=O)CCC(=O)N1CCN(Cc2cc3nc(-c4cccc5[nH]ncc45)nc(N4CCOCC4)c3s2)CC1 [CNX-1351, 1-[4-[[2-(1H-indazol-4-yl)-4-(4-morpholinyl)thieno[3,2-d]pyrimidin-6-yl]methyl]-1-piperazinyl]-6-methyl-5-heptene-1,4-dione, reference compound]
PBS solubility
  solubility: 10 µM (≈ 5.74 µg/mL)
[1]
  kchem (intrinsic reactivity of the inhibitors): 0.000222 M⁻¹ s⁻¹
Experimental LogD
  logD: 3.96

## C=CC(=O)N1CCC(CCCC(=O)N2CCN(c3nc(-c4cnc(N)nc4C(F)F)nc(N4CCOCC4)n3)CC2)CC1 [Compound 41, 4-(1-acryloylpiperidin-4-yl)-1-(4-(4-(2-amino-4-(difluoromethyl)pyrimidin-5-yl)-6-morpholino-1,3,5-triazin-2-yl)piperazin-1-yl)butan-1-one]
PBS solubility
  solubility: 243 µM (≈ 146 µg/mL)
[1]
  kchem (intrinsic reactivity of the inhibitors): 0.000225 M⁻¹ s⁻¹
Experimental LogD
  logD: 2.67

## C=CC(=O)N1CCC(COCC(=O)N2CCN(c3nc(-c4cnc(N)nc4C(F)F)nc(N4CCOCC4)n3)CC2)CC1 [Compound 61, 1-(4-((2-(4-(4-(2-amino-4-(difluoromethyl)pyrimidin-5-yl)-6-morpholino-1,3,5-triazin-2-yl)piperazin-1-yl)-2-oxoethoxy)methyl)piperidin-1-yl)prop-2-en-1-one]
PBS solubility
  solubility: 381 µM (≈ 230 µg/mL)
[1]
  kchem (intrinsic reactivity of the inhibitors): 0.00029 M⁻¹ s⁻¹
Experimental LogD
  logD: 1.7

## C=CC(=O)N1CCC(C(=O)NCCN2CCN(c3nc(-c4cnc(N)nc4C(F)F)nc(N4CCOCC4)n3)CC2)CC1 [Compound 62, 1-acryloyl-N-(2-(4-(4-(2-amino-4-(difluoromethyl)pyrimidin-5-yl)-6-morpholino-1,3,5-triazin-2-yl)piperazin-1-yl)ethyl)piperidine-4-carboxamide]
PBS solubility
  solubility: 393 µM (≈ 236 µg/mL)
[1]
  kchem (intrinsic reactivity of the inhibitors): 0.000518 M⁻¹ s⁻¹
[2]
  IC50: 82 nM
Experimental LogD
  logD: 1.4
p110α (PI3Kα)
  Ki: 16.2 nM
  kinact: 0.000187 s⁻¹
  kinact/KI: 11600 M⁻¹ s⁻¹

## C=CC(=O)N1CCC(Cc2ccc(C(=O)N3CCN(c4nc(-c5cnc(N)nc5C(F)F)nc(N5CCOCC5)n4)CC3)cc2)CC1 [Compound 100, 1-(4-(4-(4-(4-(2-amino-4-(difluoromethyl)pyrimidin-5-yl)-6-morpholino-1,3,5-triazin-2-yl)piperazine-1-carbonyl)benzyl)piperidin-1-yl)prop-2-en-1-one]
[1]
  kchem (intrinsic reactivity of the inhibitors): 0.000324 M⁻¹ s⁻¹
[2]
  IC50: 56 nM
p110α (PI3Kα)
  Ki: 9.11 nM
  kinact: 0.000123 s⁻¹
  kinact/KI: 13700 M⁻¹ s⁻¹

## C=CC(=O)N1CCC(Cc2cccc(C(=O)N3CCN(c4nc(-c5cnc(N)nc5C(F)F)nc(N5CCOCC5)n4)CC3)c2)CC1 [Compound 101, 1-(4-(3-(4-(4-(2-amino-4-(difluoromethyl)pyrimidin-5-yl)-6-morpholino-1,3,5-triazin-2-yl)piperazine-1-carbonyl)benzyl)piperidin-1-yl)prop-2-en-1-one]
PBS solubility
  solubility: 46 µM (≈ 29.8 µg/mL)
[1]
  kchem (intrinsic reactivity of the inhibitors): 0.00029 M⁻¹ s⁻¹
[2]
  IC50: 43 nM
Experimental LogD
  logD: 2.66
p110α (PI3Kα)
  Ki: 10.5 nM
  kinact: 0.00015 s⁻¹
  kinact/KI: 14300 M⁻¹ s⁻¹
